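These data come from cells grown in 96-well plates and exposed to compound for 48 hours at five concentrations. GI50 marks 50% less growth. Definition used: TGI = concentration required for complete inhibition of growth.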
How the values were obtained:
Assay in all cases: NCI-60 cell line screen, 48 h
RXF 393 renal = test system: RXF 393 renal
SK-MEL-5 melanoma = test system: SK-MEL-5 melanoma
RPMI-8226 leukemia = test system: RPMI-8226 leukemia
HL-60(TB) leukemia = test system: HL-60(TB) leukemia
SK-MEL-28 melanoma = test system: SK-MEL-28 melanoma
SF-268 CNS = test system: SF-268 CNS
HCC-2998 colon = test system: HCC-2998 colon
HCT-15 colon = test system: HCT-15 colon
SK-OV-3 ovarian = test system: SK-OV-3 ovarian
SF-295 CNS = test system: SF-295 CNS
OVCAR-8 ovarian = test system: OVCAR-8 ovarian
HOP-92 NSCLC = test system: HOP-92 NSCLC
KM12 colon = test system: KM12 colon
UO-31 renal = test system: UO-31 renal
T-47D breast = test system: T-47D breast
MALME-3M melanoma = test system: MALME-3M melanoma
HT29 colon = test system: HT29 colon
UACC-257 melanoma = test system: UACC-257 melanoma
U251 CNS = test system: U251 CNS
HCT-116 colon = test system: HCT-116 colon
SNB-19 CNS = test system: SNB-19 CNS
LOX IMVI melanoma = test system: LOX IMVI melanoma
CCRF-CEM leukemia = test system: CCRF-CEM leukemia
OVCAR-3 ovarian = test system: OVCAR-3 ovarian
A498 renal = test system: A498 renal
UACC-62 melanoma = test system: UACC-62 melanoma
SN12C renal = test system: SN12C renal
NCI-H522 lung = test system: NCI-H522 lung
786-0 renal = test system: 786-0 renal
PC-3 prostate = test system: PC-3 prostate
NCI/ADR-RES ovarian = test system: NCI/ADR-RES ovarian
MDA-MB-435 = test system: MDA-MB-435
OVCAR-4 ovarian = test system: OVCAR-4 ovarian
ACHN renal = test system: ACHN renal
SW-620 colon = test system: SW-620 colon
HS 578T breast = test system: HS 578T breast
IGROV1 ovarian = test system: IGROV1 ovarian
NCI-H226 lung = test system: NCI-H226 lung
SNB-75 CNS = test system: SNB-75 CNS
SR leukemia = test system: SR leukemia
MOLT-4 leukemia = test system: MOLT-4 leukemia
SF-539 CNS = test system: SF-539 CNS
COLO 205 colon = test system: COLO 205 colon
K-562 leukemia = test system: K-562 leukemia
TK-10 renal = test system: TK-10 renal
BT-549 breast = test system: BT-549 breast
EKVX NSCLC = test system: EKVX NSCLC
DU-145 prostate = test system: DU-145 prostate
M14 melanoma = test system: M14 melanoma
MCF7 breast = test system: MCF7 breast
OVCAR-5 ovarian = test system: OVCAR-5 ovarian
NCI-H23 lung = test system: NCI-H23 lung
SK-MEL-2 melanoma = test system: SK-MEL-2 melanoma
NCI-H460 lung = test system: NCI-H460 lung
A549 NSCLC = test system: A549 NSCLC
MDA-MB-231 breast = test system: MDA-MB-231 breast
HOP-62 NSCLC = test system: HOP-62 NSCLC

COc1cc(O)c2c(c1)[C@H]1O[C@@H]1C[C@H](O)[C@H](O)C(=O)/C=C\C[C@H](C)OC2=O
GI50 (RXF 393 renal): 1.56 µM | TGI (RXF 393 renal): 8.19 µM | GI50 (SK-MEL-5 melanoma): 1.58 µM | TGI (SK-MEL-5 melanoma): 10.3 µM | GI50 (RPMI-8226 leukemia): 1.5 µM | TGI (RPMI-8226 leukemia): 14.5 µM | GI50 (HL-60(TB) leukemia): 0.197 µM | TGI (HL-60(TB) leukemia): > 10.6 µM | GI50 (SK-MEL-28 melanoma): 0.0445 µM | TGI (SK-MEL-28 melanoma): 2.32 µM | GI50 (SF-268 CNS): 6.54 µM | TGI (SF-268 CNS): > 28.5 µM | GI50 (HCC-2998 colon): 4.85 µM | TGI (HCC-2998 colon): 19 µM | GI50 (HCT-15 colon): 1.81 µM | TGI (HCT-15 colon): 23.4 µM | GI50 (SK-OV-3 ovarian): 24 µM | TGI (SK-OV-3 ovarian): > 33.3 µM | GI50 (SF-295 CNS): 9.57 µM | TGI (SF-295 CNS): > 33.3 µM | GI50 (OVCAR-8 ovarian): 6.08 µM | TGI (OVCAR-8 ovarian): > 28.6 µM | GI50 (HOP-92 NSCLC): 0.176 µM | TGI (HOP-92 NSCLC): 2.88 µM | GI50 (KM12 colon): 12.2 µM | TGI (KM12 colon): > 33.3 µM | GI50 (UO-31 renal): 0.561 µM | TGI (UO-31 renal): > 21.6 µM | GI50 (T-47D breast): 0.774 µM | TGI (T-47D breast): 18.3 µM | GI50 (MALME-3M melanoma): 0.00553 µM | TGI (MALME-3M melanoma): 0.0231 µM | GI50 (HT29 colon): 0.0883 µM | TGI (HT29 colon): 13.4 µM | GI50 (UACC-257 melanoma): 0.0584 µM | TGI (UACC-257 melanoma): 0.525 µM | GI50 (U251 CNS): 8.57 µM | TGI (U251 CNS): > 33.3 µM | GI50 (HCT-116 colon): 0.779 µM | TGI (HCT-116 colon): > 17.5 µM | GI50 (SNB-19 CNS): 8.59 µM | TGI (SNB-19 CNS): > 33.3 µM | GI50 (LOX IMVI melanoma): 1.25 µM | TGI (LOX IMVI melanoma): > 19.3 µM | GI50 (CCRF-CEM leukemia): 1.54 µM | TGI (CCRF-CEM leukemia): > 33.3 µM | GI50 (OVCAR-3 ovarian): 2.49 µM | TGI (OVCAR-3 ovarian): 16.5 µM | GI50 (A498 renal): 1.93 µM | TGI (A498 renal): 9.51 µM | GI50 (UACC-62 melanoma): 0.114 µM | TGI (UACC-62 melanoma): 5.33 µM | GI50 (SN12C renal): 5.25 µM | TGI (SN12C renal): > 27.7 µM | GI50 (NCI-H522 lung): 0.599 µM | TGI (NCI-H522 lung): 6.42 µM | GI50 (786-0 renal): 4.87 µM | TGI (786-0 renal): 27.4 µM | GI50 (PC-3 prostate): 11.5 µM | TGI (PC-3 prostate): > 33.3 µM | GI50 (NCI/ADR-RES ovarian): 8.56 µM | TGI (NCI/ADR-RES ovarian): > 33.3 µM | GI50 (MDA-MB-435): 0.298 µM | TGI (MDA-MB-435): 7.15 µM | GI50 (OVCAR-4 ovarian): 1.07 µM | TGI (OVCAR-4 ovarian): > 33.3 µM | GI50 (ACHN renal): 2.14 µM | TGI (ACHN renal): > 33.3 µM | GI50 (SW-620 colon): 0.56 µM | TGI (SW-620 colon): 6.36 µM | GI50 (HS 578T breast): 5.92 µM | TGI (HS 578T breast): 27 µM | GI50 (IGROV1 ovarian): 1.27 µM | TGI (IGROV1 ovarian): > 33.3 µM | GI50 (NCI-H226 lung): 3.71 µM | TGI (NCI-H226 lung): > 27.1 µM | GI50 (SNB-75 CNS): 6.11 µM | TGI (SNB-75 CNS): > 33.3 µM | GI50 (SR leukemia): 3.08 µM | TGI (SR leukemia): > 30.6 µM | GI50 (MOLT-4 leukemia): 2.65 µM | TGI (MOLT-4 leukemia): > 33.3 µM | GI50 (SF-539 CNS): 4.68 µM | TGI (SF-539 CNS): 12.6 µM | GI50 (COLO 205 colon): 0.0226 µM | TGI (COLO 205 colon): 4.02 µM | GI50 (K-562 leukemia): 2.09 µM | TGI (K-562 leukemia): > 33.3 µM | GI50 (TK-10 renal): 1.69 µM | TGI (TK-10 renal): 20.3 µM | GI50 (BT-549 breast): 1.18 µM | TGI (BT-549 breast): 10.7 µM | GI50 (EKVX NSCLC): 3.88 µM | TGI (EKVX NSCLC): > 30.8 µM | GI50 (DU-145 prostate): 3.53 µM | TGI (DU-145 prostate): > 33.3 µM | GI50 (M14 melanoma): 0.0483 µM | TGI (M14 melanoma): 6.84 µM | GI50 (MCF7 breast): 2.09 µM | TGI (MCF7 breast): > 33.3 µM | GI50 (OVCAR-5 ovarian): 3.98 µM | TGI (OVCAR-5 ovarian): > 33.3 µM | GI50 (NCI-H23 lung): 1.95 µM | TGI (NCI-H23 lung): > 27.3 µM | GI50 (SK-MEL-2 melanoma): 1.68 µM | TGI (SK-MEL-2 melanoma): 10.5 µM | GI50 (NCI-H460 lung): 4.96 µM | TGI (NCI-H460 lung): > 21.2 µM | GI50 (A549 NSCLC): 16.7 µM | TGI (A549 NSCLC): > 33.3 µM | GI50 (MDA-MB-231 breast): 2.05 µM | TGI (MDA-MB-231 breast): 16.2 µM | GI50 (HOP-62 NSCLC): 8.97 µM | TGI (HOP-62 NSCLC): > 29.7 µM

From PubChem BioAssay (NCI)
